In patent EP0820452B1, “CARBONYL-PIPERAZINYL AND PIPERIDINIL COMPOUNDS WHICH INHIBIT FARNESYL PROTEIN TRANSFERASE” (SCHERING CORPORATION, priority 1995, dated 1996) one finds IC50 data, which are given here for one molecule.

The term IC50 denotes the concentration at which inhibition is half-maximal. A high value points to weaker potency.

The test concerns the target FTase (Homo sapiens, UniProt P49354+P49356). Briefly: in vitro assay measuring the inhibition of FTase (FPT IC50), methods of WO95/10516. The following applies: concentration of compound which inhibits 50% of FPT transferase. It counts as biochemical. The text has this: Measurements of pharmacological activity of the present compounds can be made based upon a […] (i.e. FPT lC50), cell mat assay (GGPT lC50) or in vitro tumor activity (Cos Cell lC50) as described by the methods in W095/10516.
FPT lC50 values refer to concentration, in micromoles (µM), of compound which inhibits 50% of FPT transferase

Chain of FTase (P49356 whole entry, one chain of several): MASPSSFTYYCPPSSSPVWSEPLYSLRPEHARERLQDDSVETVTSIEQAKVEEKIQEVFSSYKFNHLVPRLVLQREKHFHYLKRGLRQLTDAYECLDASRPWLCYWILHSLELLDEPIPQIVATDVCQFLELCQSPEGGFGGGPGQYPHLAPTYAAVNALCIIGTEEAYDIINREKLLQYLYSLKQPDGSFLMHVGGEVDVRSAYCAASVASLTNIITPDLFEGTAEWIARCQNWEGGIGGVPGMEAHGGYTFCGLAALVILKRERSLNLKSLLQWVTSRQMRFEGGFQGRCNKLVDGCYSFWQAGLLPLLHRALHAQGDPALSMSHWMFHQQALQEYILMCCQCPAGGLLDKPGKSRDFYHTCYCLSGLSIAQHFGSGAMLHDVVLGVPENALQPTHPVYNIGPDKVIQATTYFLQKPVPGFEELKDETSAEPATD

As for `CC(C)NC(=O)CC1CN(C(=O)c2ccc3ccccc3c2)CCN1C(=O)Cc1ccncc1` (stereo not shown), the IC50 is more than 50 µM.
